Patent US6136808A, “Taxane derivatives” (Kabushiki Kaisha Yakult Honsha, priority 1997, dated 2000)
≈ marks a conversion by molar mass, not a printed value. Where two headings read alike, the source gives them in different places.

Columns and labels:
KB cells = assay: Cancer cell proliferation activities, growth inhibition of KB cells (XTT assay); format: cell-based; settings: Homo sapiens, 72 h
Procedure: Cancer Cell Proliferation Activities
As KB cells derived from a human mouth cancer, those purchased from Dainippon Pharmaceutical Co., Ltd. and stored in a lyophilized from at the Research Institute of that company was used. In Dulbecco's modified Eargle's medium containing 10% fetal bovine serum (product of NISSUI PHARMACEUTICAL CO., LTD.), the KB cells were cultured and maintained under the conditions of 5%, CO2 -air and 37° C.
Each compound was used by dissolving it at a concentration of 10 mg/ml in DMSO.
On Day-1, cells which were in a logarithmic growth phase were inoculated at 2,000 cells/100 μl/well on 96-well microtiter plates (Falcon #3072) by using a phenol-red-free culture medium with 10% fetal bovine serum contained therein (Dulbecco's modified Eargle's medium (Sigma)), and were cultured overnight. On Day 0, the compounds each of which had been diluted to 0.03 to 10,000 ng/ml with the same culture medium were added in 100 μl aliquots to the individual wells, and the cells were cultured for 3 days. Three wells were used per each drug concentration. Each plate was provided with three blank wells containing only the culture medium and also with eight wells as a drug-untreated control.
Upon use, XTT (Sigma) was dissolved at a concentration of 1 mg/ml in each culture medium which was free of serum. Phenodin methosulfate (Sigma) dissolved at a concentration of 5 mM in PBS was added to the resulting solution at a volume ratio of 1/200. To each well, the solution so prepared was added in an amount of 50 μl per well. Subsequent to culture for 4 hours, OD was measured at 450 nm by ELISA.
Calculation of 50% Growth Inhibitory Concentration (GI50)
GI50 was calculated by interpolation from a concentration-growth inhibition rate (GIR). GIR was determined in accordance with the following formula: [formula]

[1] = Solubility test in water of taxane derivatives (HPLC); settings: for Dissolved amount (Y): purified water + 0.1N hydrochloric acid (1.05 eq.), room temperature, 2 hours, HPLC; for solubility: water; for solubility at 2 h: water + 0.1n hcl
Procedure: I) Measurement of the solubility of the compound (b)
1) Preparation of a calibration curve
(§1) The compound (b) was weighed in an amount of 1.19 mg, to which 1.19 ml of acetonitrile was added so that the compound was dissolved to provide a standard solution. Using a 10 μl portion of the standard solution, the test was conducted by HPLC (operation conditions 1). […] The peak area obtained as an average of three measurements was plotted against the amount (10.0 μg) of the compound (b) per 10 μl, whereby a calibration curve was prepared.
Calibration curve: Y=2.08×10^-5 X [X: peak area, Y: amount (μg) of the compound (b)]
[HPLC operation conditions 1]
Column: Inertsil ODS-2 (5-250), 40 deg.
Mobile phase: 0.01M KH2 PO4 --CH3 CN (3:2)
Detection: Ultraviolet absorption photometer (225 nm), 0.2 aufs.
2) Solubility test of the compound (b)
(§2) The compound (b) was weighed in an amount of 4.0 mg and then suspended in 2.0 ml of purified water. To the resulting suspension, 45 μl (1.05 eq.) of 0.1N hydrochloric acid was added. By ultrasonication, the resulting mixture was formed into a uniform suspension, which was then shaken at room temperature for 2 hours. The thus-obtained mixture was filtered through a membrane filter (0.22 μm), and the filtrate was provided as a test solution. Using the resulting test solution, the test was conducted by HPLC (operation conditions 1). From the area obtained as an average of three measurements, the solubility of the compound (b) was determined.
II) Measurement of the solubility of the compound (j)
as §1, with “(j)” for “(b)”, “0.94” for “1.19”, “The” for “The peak”
Calibration curve: Y=2.02×10^-5 X [X: peak area, Y: amount (μg) of the compound (j)]
2) Solubility test of the compound (j)
as §2, with “(j)” for “(b)”, “4.24” for “4.0”, “46” for “45”

[2] = tested on: ovarian cancer and breast cancer; settings: Ann. int. Med. 111, 273, 1989; cited from earlier work
[3] = background statement on Taxol; cited from earlier work

Structure (SMILES)	GI50 (KB cells; KB)	Dissolved amount (Y) [1]	solubility [1]	solubility at 2 h [1]	GI50 (KB cells; KB cells, 3 days, XTT, read-out: GI50)	efficacy against ovarian cancer and breast cancer [2]	solubility in water (in words) [3]
CCN1CCN(C(=O)OC2C(=O)C3(C)C(O)CC4OCC4(OC(C)=O)C3C(OC(=O)c3ccccc3)C3(O)CC(OC(=O)C(O)C(NC(=O)OC4CCCC4)c4ccccc4)C(C)=C2C3(C)C)CC1 (stereo not drawn) [Compound j, 13-O-(3-Cyclopentyloxycarbonylamino-2-hydroxy-3-phenylpropionyl)-10-O-(4-ethylpiperazinocarbonyl)-10-deacetylbaccatin III]	0.58 ng/mL (≈ 0.000604 µM)	9.20 μg/5 μl	1840 µg/mL (≈ 1920 µM)	1840 µg/mL			
CC(=O)OC12COC1CC(O)C1(C)C(=O)C(OC(=O)N3CCN(C)CC3)C3=C(C)C(OC(=O)C(O)C(NC(=O)c4ccco4)c4ccccc4)CC(O)(C(OC(=O)c4ccccc4)C21)C3(C)C (stereo not drawn) [Compound b, 13-O-[3-(2-Furoylamino)-2-hydroxy-3-phenylpropionyl]-10-O-(4-methylpiperazinocarbonyl)-10-deacetylbaccatin III]		9.98 μg/5 μl	2000 µg/mL (≈ 2160 µM)	2000 µg/mL	1.4 ng/mL (≈ 0.00151 µM)		
CC(=O)O[C@H]1C(=O)[C@@]2(C)[C@H]([C@H](OC(=O)c3ccccc3)[C@]3(O)C[C@H](OC(=O)[C@H](O)[C@@H](NC(=O)c4ccccc4)c4ccccc4)C(C)=C1C3(C)C)[C@]1(OC(C)=O)CO[C@@H]1C[C@@H]2O [Taxol, reference compound]	1.3 ng/mL (≈ 0.00152 µM)		0.4 µg/mL (≈ 0.468 µM)			high efficacy against ovarian cancer and breast cancer	sparingly soluble in water
